Results: the supplement of paper PMC10307832

Columns and labels:
Test in all cases: relative viability (nuclei count vs DMSO), 5 days (fraction); higher = more cells survive
[1] = tested on: LCLC-103H
How it was run: (§1)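 Medians of duplicate plates are given as relative viability. That measure is the nuclei count in treated wells divided by the count in vehicle wells. Counts were taken on 4× images of lung cancer cell lines in 1536-well plates, 5 days after pin-tool dosing the day after seeding with one drug alone or a fixed anchor-drug dose plus five library-drug doses (not always all listed) in √10 steps.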

[2] = tested on: LXF-289
How it was run: as §1

[3] = tested on: NCI-H1355
How it was run: as §1

[4] = tested on: NCI-H1563
How it was run: as §1

[5] = tested on: NCI-H1651
How it was run: as §1

[6] = tested on: NCI-H1755
How it was run: as §1

[7] = tested on: NCI-H1792
How it was run: as §1

[8] = tested on: NCI-H1915
How it was run: as §1

[9] = tested on: NCI-H2347
How it was run: as §1

[10] = tested on: NCI-H3122
How it was run: as §1

[11] = tested on: NCI-H322M
How it was run: as §1

[12] = tested on: NCI-H441
How it was run: as §1

[13] = tested on: NCI-H460
How it was run: as §1

[14] = tested on: NCI-H520
How it was run: as §1

[15] = tested on: NCI-H522
How it was run: as §1

[16] = tested on: NCI-H596
How it was run: as §1

[17] = tested on: NCI-H661
How it was run: as §1

[18] = tested on: NCI-H727
How it was run: as §1

[19] = tested on: PC-14
How it was run: as §1

[20] = tested on: RERF-LC-KJ
How it was run: as §1

[21] = tested on: SK-MES-1
How it was run: as §1

[22] = tested on: SW 900
How it was run: as §1

SMILES: COc1nc(C)cnc1NS(=O)(=O)c1cccnc1-c1ccc(-c2nnco2)cc1 [Zibotentan] + N=C(N)NC(=N)NCCc1ccccc1 [Phenformin] (partner 250 µM)
- relative viability ([1]; first compound 0.08 µM): 0.357
- relative viability ([1]; first compound 0.253 µM): 0.314
- relative viability ([1]; first compound 0.8 µM): 0.315
- relative viability ([1]; first compound 2.53 µM): 0.333
- relative viability ([2]; first compound 0.08 µM): 0.533
- relative viability ([2]; first compound 0.253 µM): 0.489
- relative viability ([2]; first compound 0.8 µM): 0.571
- relative viability ([2]; first compound 2.53 µM): 0.543
- relative viability ([3]; first compound 0.08 µM): 0.465
- relative viability ([3]; first compound 0.253 µM): 0.414
- relative viability ([3]; first compound 0.8 µM): 0.449
- relative viability ([3]; first compound 2.53 µM): 0.491
- relative viability ([4]; first compound 0.08 µM): 0.67
- relative viability ([4]; first compound 0.8 µM): 0.66
- relative viability ([4]; first compound 2.53 µM): 0.643
- relative viability ([5]; first compound 0.08 µM): 0.38
- relative viability ([5]; first compound 0.253 µM): 0.264
- relative viability ([5]; first compound 0.8 µM): 0.294
- relative viability ([5]; first compound 2.53 µM): 0.339
- relative viability ([6]; first compound 0.08 µM): 0.658
- relative viability ([6]; first compound 0.253 µM): 0.636
- relative viability ([6]; first compound 0.8 µM): 0.599
- relative viability ([6]; first compound 2.53 µM): 0.703
- relative viability ([7]; first compound 0.08 µM): 0.424
- relative viability ([7]; first compound 0.253 µM): 0.244
- relative viability ([7]; first compound 0.8 µM): 0.355
- relative viability ([7]; first compound 2.53 µM): 0.259
- relative viability ([8]; first compound 0.08 µM): 0.399
- relative viability ([8]; first compound 0.253 µM): 0.358
- relative viability ([8]; first compound 0.8 µM): 0.377
- relative viability ([8]; first compound 2.53 µM): 0.289
- relative viability ([9]; first compound 0.253 µM): 0.434
- relative viability ([9]; first compound 0.8 µM): 0.375
- relative viability ([9]; first compound 2.53 µM): 0.444
- relative viability ([10]; first compound 0.08 µM): 0.378
- relative viability ([10]; first compound 0.8 µM): 0.408
- relative viability ([10]; first compound 2.53 µM): 0.373
- relative viability ([11]; first compound 0.08 µM): 0.824
- relative viability ([11]; first compound 0.253 µM): 0.589
- relative viability ([11]; first compound 0.8 µM): 0.831
- relative viability ([11]; first compound 2.53 µM): 0.816
- relative viability ([12]; first compound 0.08 µM): 1.07
- relative viability ([12]; first compound 0.253 µM): 0.665
- relative viability ([12]; first compound 0.8 µM): 0.926
- relative viability ([12]; first compound 2.53 µM): 0.895
- relative viability ([13]; first compound 0.08 µM): 0.56
- relative viability ([13]; first compound 0.253 µM): 0.147
- relative viability ([13]; first compound 0.8 µM): 0.496
- relative viability ([13]; first compound 2.53 µM): 0.532
- relative viability ([14]; first compound 0.08 µM): 0.726
- relative viability ([14]; first compound 0.253 µM): 0.58
- relative viability ([14]; first compound 0.8 µM): 0.519
- relative viability ([14]; first compound 2.53 µM): 0.581
- relative viability ([15]; first compound 0.08 µM): 0.614
- relative viability ([15]; first compound 0.253 µM): 0.648
- relative viability ([15]; first compound 0.8 µM): 0.672
- relative viability ([15]; first compound 2.53 µM): 0.723
- relative viability ([16]; first compound 0.08 µM): 0.842
- relative viability ([16]; first compound 0.253 µM): 0.786
- relative viability ([16]; first compound 0.8 µM): 0.794
- relative viability ([16]; first compound 2.53 µM): 0.805
- relative viability ([17]; first compound 0.08 µM): 0.267
- relative viability ([17]; first compound 0.253 µM): 0.252
- relative viability ([17]; first compound 0.8 µM): 0.281
- relative viability ([17]; first compound 2.53 µM): 0.296
- relative viability ([18]; first compound 0.08 µM): 0.41
- relative viability ([18]; first compound 0.253 µM): 0.519
- relative viability ([18]; first compound 0.8 µM): 0.553
- relative viability ([18]; first compound 2.53 µM): 0.627
- relative viability ([19]; first compound 0.08 µM): 0.692
- relative viability ([19]; first compound 0.253 µM): 0.377
- relative viability ([19]; first compound 0.8 µM): 0.66
- relative viability ([19]; first compound 2.53 µM): 0.601
- relative viability ([20]; first compound 0.08 µM): 0.423
- relative viability ([20]; first compound 0.8 µM): 0.418
- relative viability ([20]; first compound 2.53 µM): 0.447
- relative viability ([21]; first compound 0.08 µM): 0.714
- relative viability ([21]; first compound 0.253 µM): 0.612
- relative viability ([21]; first compound 0.8 µM): 0.678
- relative viability ([21]; first compound 2.53 µM): 0.692
- relative viability ([22]; first compound 0.08 µM): 0.557
- relative viability ([22]; first compound 0.253 µM): 0.502
- relative viability ([22]; first compound 0.8 µM): 0.669
- relative viability ([22]; first compound 2.53 µM): 0.801

SMILES: COc1nc(C)cnc1NS(=O)(=O)c1cccnc1-c1ccc(-c2nnco2)cc1 [Zibotentan] + Cc1nc(Nc2ncc(C(=O)Nc3c(C)cccc3Cl)s2)cc(N2CCN(CCO)CC2)n1 [Dasatinib] (partner 0.075 µM)
- relative viability ([1]; first compound 0.08 µM): 0.47
- relative viability ([1]; first compound 0.253 µM): 0.562
- relative viability ([1]; first compound 0.8 µM): 0.451
- relative viability ([1]; first compound 2.53 µM): 0.531
- relative viability ([2]; first compound 0.08 µM): 0.247
- relative viability ([2]; first compound 0.253 µM): 0.22
- relative viability ([2]; first compound 0.8 µM): 0.206
- relative viability ([2]; first compound 2.53 µM): 0.244
- relative viability ([3]; first compound 0.08 µM): 0.691
- relative viability ([3]; first compound 0.253 µM): 0.743
- relative viability ([3]; first compound 0.8 µM): 0.718
- relative viability ([3]; first compound 2.53 µM): 0.832
- relative viability ([4]; first compound 0.08 µM): 0.493
- relative viability ([4]; first compound 0.253 µM): 0.435
- relative viability ([4]; first compound 0.8 µM): 0.476
- relative viability ([4]; first compound 2.53 µM): 0.397
- relative viability ([5]; first compound 0.08 µM): 0.462
- relative viability ([5]; first compound 0.253 µM): 0.318
- relative viability ([5]; first compound 0.8 µM): 0.445
- relative viability ([5]; first compound 2.53 µM): 0.451
- relative viability ([6]; first compound 0.08 µM): 0.433
- relative viability ([6]; first compound 0.253 µM): 0.413
- relative viability ([6]; first compound 0.8 µM): 0.4
- relative viability ([6]; first compound 2.53 µM): 0.473
- relative viability ([7]; first compound 0.08 µM): 0.872
- relative viability ([7]; first compound 0.253 µM): 0.664
- relative viability ([7]; first compound 0.8 µM): 0.635
- relative viability ([7]; first compound 2.53 µM): 0.827
- relative viability ([8]; first compound 0.08 µM): 0.382
- relative viability ([8]; first compound 0.253 µM): 0.29
- relative viability ([8]; first compound 0.8 µM): 0.336
- relative viability ([8]; first compound 2.53 µM): 0.29
- relative viability ([9]; first compound 0.253 µM): 0.294
- relative viability ([9]; first compound 0.8 µM): 0.298
- relative viability ([9]; first compound 2.53 µM): 0.331
- relative viability ([10]; first compound 0.08 µM): 0.807
- relative viability ([10]; first compound 0.253 µM): 0.817
- relative viability ([10]; first compound 0.8 µM): 0.701
- relative viability ([10]; first compound 2.53 µM): 0.751
- relative viability ([11]; first compound 0.08 µM): 0.235
- relative viability ([11]; first compound 0.253 µM): 0.245
- relative viability ([11]; first compound 0.8 µM): 0.27
- relative viability ([11]; first compound 2.53 µM): 0.269
- relative viability ([12]; first compound 0.08 µM): 0.715
- relative viability ([12]; first compound 0.253 µM): 0.476
- relative viability ([12]; first compound 0.8 µM): 0.679
- relative viability ([12]; first compound 2.53 µM): 0.677
- relative viability ([13]; first compound 0.08 µM): 0.559
- relative viability ([13]; first compound 0.253 µM): 0.391
- relative viability ([13]; first compound 0.8 µM): 0.504
- relative viability ([13]; first compound 2.53 µM): 0.602
- relative viability ([14]; first compound 0.08 µM): 0.252
- relative viability ([14]; first compound 0.253 µM): 0.222
- relative viability ([14]; first compound 0.8 µM): 0.224
- relative viability ([14]; first compound 2.53 µM): 0.237
- relative viability ([15]; first compound 0.08 µM): 0.479
- relative viability ([15]; first compound 0.253 µM): 0.839
- relative viability ([15]; first compound 0.8 µM): 0.974
- relative viability ([15]; first compound 2.53 µM): 0.964
- relative viability ([16]; first compound 0.08 µM): 0.68
- relative viability ([16]; first compound 0.253 µM): 0.549
- relative viability ([16]; first compound 0.8 µM): 0.538
- relative viability ([16]; first compound 2.53 µM): 0.561
- relative viability ([17]; first compound 0.08 µM): 0.924
- relative viability ([17]; first compound 0.253 µM): 0.805
- relative viability ([17]; first compound 0.8 µM): 0.943
- relative viability ([17]; first compound 2.53 µM): 0.939
- relative viability ([18]; first compound 0.08 µM): 0.333
- relative viability ([18]; first compound 0.253 µM): 0.251
- relative viability ([18]; first compound 0.8 µM): 0.279
- relative viability ([18]; first compound 2.53 µM): 0.372
- relative viability ([19]; first compound 0.08 µM): 0.26
- relative viability ([19]; first compound 0.253 µM): 0.172
- relative viability ([19]; first compound 0.8 µM): 0.243
- relative viability ([19]; first compound 2.53 µM): 0.277
- relative viability ([20]; first compound 0.08 µM): 0.863
- relative viability ([20]; first compound 0.8 µM): 0.671
- relative viability ([20]; first compound 2.53 µM): 0.749
- relative viability ([21]; first compound 0.08 µM): 0.333
- relative viability ([21]; first compound 0.253 µM): 0.261
- relative viability ([21]; first compound 0.8 µM): 0.473
- relative viability ([21]; first compound 2.53 µM): 0.363
- relative viability ([22]; first compound 0.08 µM): 0.633
- relative viability ([22]; first compound 0.253 µM): 0.59
- relative viability ([22]; first compound 0.8 µM): 0.562
- relative viability ([22]; first compound 2.53 µM): 0.911
